What was measured:
Type in all cases: cell-based
[1] = tested on: HCT116 (KRAS G13D mutant type); assay: In vitro growth inhibition (GI50), HCT116; settings: Homo sapiens, HCT-116
Source text: (§1) Tumor cell line is an effective cell model for studying the inhibition of tumor cell growth or proliferation in vitro. In the present invention, a representative tumor cell line was selected to determine the cell growth inhibition activity of the present compound. All cell lines used were from ATCC, DSMZ, and the Cell Bank of the Chinese Academy of Sciences. Cell culture conditions and methods were in accordance with the requirements of each cell line. Cells were subcultured in vitro for no more than 3 passages each time, and as required, single-clone purification and identification of cell lines could be carried out.
(§2) The cell culture media used were RPMI1640 (Gibco), MEM (Gibco), McCOY'S5A (Gibco), and IMDM (Gibco). The complete medium was prepared by supplement with 5˜20% fetal calf serum (Gibco), 1% double-antibiotics (10000 units/mL penicillin and 10000 units/mL), 2 mM glutamine or 1 mM sodium pyruvate, respectively.
(§3) Human large cell lung cancer cell NCI-H460 (KRAS […] mutant type, ATCC), human non-small cell lung cancer cell line H1299 (NRAS Q61K mutant type, ATCC), human melanoma cell line A375 (BRAF V600E mutant type, Shanghai Cell Bank of Chinese Academy of Sciences), human colon cancer cell line HCT116 (KRAS G13D mutant type, Shanghai Cell Bank, Chinese Academy of Sciences) were cultured in a complete medium of 1×RPMI1640 (10% FBS), respectively. Human non-small cell lung cancer cells A549 (KRAS G12S mutant type, Shanghai Cell Bank, Chinese Academy of Sciences) were cultured in a complete medium of 1× Ham's supplemented with 10% FBS, 1% double antibody, and 2 mM glutamine.
(§4) Adherent cells were digested with 0.25% pancreatin-EDTA (Gibco). The suspension cells were collected by centrifugation. The supernatant was discarded and the cell pellet was resuspended and counted. Different cell concentrations (5˜10×10^4 cells/mL) were prepared according to the growth cycle of each cell line and then seeded on a 96-well plate (Corning), 100 μL/well. The cells were incubated overnight at 37° C., 5% CO2. The compounds were added to the cells on the second day with 2 wells in parallel. The final concentration of organic solvent shall not exceed 1%. The cells were continually incubated for 3 to 5 days, and then subjected to MTT assay.
(§5) The compound of the present invention and the control compound were dissolved in DMSO (Sigma) respectively, with the purity of more than 98%. The compound was stored in a concentration of 10 mM at −20° C. and diluted to 2- or 10-fold series prior to use.
(§6) Dojindo CCK8 reagent kit was used as MTT assay. THERMO […] FC meter was used as microplate reader.
(§7) For adherent cells, culture medium was removed and immediately replaced with the fresh prepared medium which contains 10% CCK8 reagent (100 μL/well). For the suspension cells, CCK8 was directly added to 10% of the final concentration. The cells were continually incubated for 1˜4 h. When a dark yellow color could be observed in the solvent control wells, the absorbance value at OD450 nm was measured and the cell growth rate was calculated according to the following formula: Cell Growth Rate (%)=100*(T−T0)/(C−T0) T=optical density of drug treatment cell well—optical density of blank control well; T0=optical density of cell well before drug treatment—optical density of blank control well; C=optical density of cell well of solvent control group—optical density of blank control well. The concentration value of 50% inhibition of cell growth (GI50) was calculated according to the drug concentration and cell growth rate curve. The experiment was independently repeated 1˜3 times, and subject to biological statistical analysis. 4. Experimental Results
(§8) Tumor cell growth inhibition test was performed by selecting representative compounds (compounds 4, 11, 12, 16, 27, 68, 71, 77, 79, 89 and 116 of the present invention). The initial concentration of the compound was 5,000 nM, then it was serially diluted by 2-fold or 10-fold to 0.01 nM. […]

[2] = tested on: PC-9 (EGFR exon19 E746-A750 deletion); assay: In vitro growth inhibition (GI50), PC-9; settings: Homo sapiens; PC-9, EGFR DelE746-A750
Source text: as §1, §2
Human epidermal cancer cell line A431 (EGFR WT, amplification and high expression, from Shanghai Cell Bank of Chinese Academy of Sciences and ATCC), human lung cancer cell line NCI-H292 (EGFR WT, purchased from Shanghai Cell Bank of Chinese Academy of Sciences), NSCLC cell lines PC-9 and HCC827 (EGFR exon19 E746-A750 deletion, two cell lines are sensitive to the first-generation EGFR PTK inhibitor), NSCLC cell line NCI-H1975 (EGFR L858R/T790M and the first-generation EGFR inhibitor resistance, ATCC) were cultured with 1×RPMI1640 complete medium (supplement with 10% FBS), respectively.
as §4, §5, §6, §7
as §8, with “nM. The GI50 value of each test compound was calculated according to the GI50 assay and calculation method.” for “nM.”

[3] = tested on: A375 (BRAF V600E mutant type); assay: In vitro growth inhibition (GI50), A375; settings: Homo sapiens, A-375
Source text: as §1, §2, §3, §4, §5, §6, §7, §8

Measured: GI50

CC(C)(C)c1cc(NC(=O)Nc2ccc(-n3cnc4cc(OCCN5CCOCC5)ccc43)cc2)no1 [Compound 16, 1-(5-tert-butyl-isoxazol-3-yl)-3-{4-[5-(2-morpholin-4-yl-ethoxyl)-benzimidazol-1-yl]-phenyl}-urea]
> 2.5 µM: all assays above

CC(C)(C)c1cc(N)n(C(=O)Nc2ccc(-n3cnc4ccccc43)cc2)n1 [Compound 116, 5-amino-3-tert-butyl-pyrazol-1-carboxylic acid (4-benzimidazol-1-yl-phenyl)-amide]
> 2.5 µM: all assays above

CC(C)(C)c1cc(NC(=O)Nc2ccc(-n3cnc4cc(OCCO)ccc43)cc2)[nH]n1 [Compound 79, 1-(5-tert-butyl-2H-pyrazol-3-yl)-3-{4-[5-(2-hydroxy-ethoxyl)-benzimidazol-1-yl]-phenyl]urea]
> 2.5 µM: all assays above

CC(C)(C)c1cc(NC(=O)Nc2ccc(-n3cnc4cc(OCCN5CCOCC5)ccc43)cc2)[nH]n1 [Compound 89, 1-(5-tert-butyl-2H-pyrazol-3-yl)-3-{4-[5-(2-morpholin-4-yl-ethoxyl)-benzimidazol-1-yl]-phenyl}-urea]
> 2.5 µM: all assays above

COCCOc1ccc2c(c1)ncn2-c1ccc(NC(=O)Nc2cc(C(C)(C)C)n[nH]2)cc1 [Compound 77, 1-(5-tert-butyl-2H-pyrazol-3-yl)-3-{4-[5-(2-methoxyl-ethoxyl)-benzimidazol-1-yl]-phenyl}-urea]
> 2.5 µM: all assays above

COc1ccc2c(c1)ncn2-c1ccc(NC(=O)Nc2cc(C(C)(C)C)n[nH]2)cc1 [Compound 71, 1-(5-tert-butyl-2H-pyrazol-3-yl)-3-[4-(5-methoxyl-benzimidazol-1-yl)-phenyl]-urea]
> 2.5 µM: all assays above

CC(C)(C)c1cc(NC(=O)Nc2ccc(-n3cnc4ccccc43)cc2)[nH]n1 [Compound 68, 1-(4-benzimidazol-1-yl-phenyl)-3-(5-tert-butyl-2H-pyrazol-3-yl)-urea]
> 2.5 µM: all assays above

CC(C)(C)c1cc(NC(=O)Nc2ccc(-n3cnc4ccc(OCCN5CCOCC5)cc43)cc2)no1 [Compound 27, 1-(5-tert-butyl-isoxazol-3-yl)-3-{4-[6-(2morpholin-4-yl-ethoxyl)-benzimidazol-1-yl]-phenyl}-urea]
> 2.5 µM: all assays above

CC(C)(C)c1cc(NC(=O)Nc2ccc(-n3cnc4cc(O)ccc43)cc2)no1 [Compound 4, 1-(5-tert-butyl-isoxazol-3-yl)-3-[4-(5-hydroxy-benzimidazol-1-yl)-phenyl]-urea]
> 2.5 µM: all assays above

CC(C)(C)c1cc(NC(=O)Nc2ccc(-n3cnc4cc(OCCO)ccc43)cc2)no1 [Compound 11, 1-(5-tert-butyl-isoxazol-3-yl)-3-{4-[5-(2-hydroxy-ethoxyl)-benzimidazol-1-yl]-phenyl]-urea]
> 2.5 µM: all assays above
